Reference: US20060148712A1, “Monocyte chemoattractant activity of galectin-3” (priority 2000, published 2006)

Experiments:
[1] = system: human peripheral blood monocytes; assay: Monocyte migration assay in vitro (96-well micro Boyden chamber); format: cell-based
Excerpt: Human monocytes were purified from venous blood of normal volunteers essentially as described previously (Nakagawara, et al., J. Clin. Invest. 68:1243-53 (1981)). In brief, after erythrocytes were sedimented by addition of 6% dextran saline solution (I part to 5 parts heparinized blood), the leukocytes were collected, washed twice, and resuspended in Ca^2+ and Mg^2+-free HBSS containing 5% autologous serum. Mononuclear cells were acquired by centrifugation of the leukocyte suspension on Ficoll Paque at 1,500 rpm for 15 min. The cells were resuspended in RPMI 1640 containing 10% autologous serum and allowed to adhere to sterile tissue culture plates for 30 min in a humidified incubator at 5% CO2 and 37° C. After incubation, non-adherent cells were removed by washing the plates three times with PBS at 37° C. […] To detach and harvest the adhered monocytes, 1 mM EDTA-PBS containing 5% serum was added and the plates were incubated on ice for 30 min. The monocytes were washed twice with HBSS and resuspended in RPMI 1640 with 0.1% autologous serum for the migration assay. The viability of monocytes was determined by trypan blue exclusion and was more than 98%. In some experiments, monocytes were purified according to another method using a Percoll discontinuous gradient described previously (Chuluyan & Issekutz, J. Clin. Invest. 92:2768-77 (1993)).
Monocyte migration was examined by using 96-well micro Boyden chambers with 5 μm-pore size filters (Neuro Probe, Inc., Gaithersburg, Md.) as described previously (Falk, et al., J. Immunol. Meth. 33:239-47 (1980)), Chertov, et al., J. Biol. Chem. 271:2935-40 (1996)). Briefly, after the indicated concentrations of galectin-3 in RPMI 1640 were applied to the lower chambers, purified monocyte suspensions (2.5-5.0×10^4/well) were applied to the upper chambers. After incubation of the chambers for 1 h in a humidified incubator at 5% CO2 and 37° C., the filters were washed once with PBS and processed with Wright stain. The number of monocytes on the bottom side of the filters was counted in 5 to 10 high-power fields. Monocyte migration was calculated from the average numbers of the counted cells and expressed as % of input cells in a well.
In assays using inhibitory reagents, the purified monocytes were pretreated with or without the indicated concentrations of B2C10 (Liu, et al., Biochemistry 35:[…] (1996)) or anti-DNP IgG1 (Liu, et al., J. Immunol. 124:2728-31 (1980)) as an isotype-matched control mAb, galectin-3C, or PTX at 37° C. for 30 min. Then the cells were applied to the upper chambers in the presence of these inhibitors at the same concentrations used in the pretreatment. In the assays using lactose and sucrose, the sugars were added to the lower chambers at the initiation of the migration assay.

CXCR-4 = target: T1, CXCR-4 (Homo sapiens, UniProt P61073); assay: Immunoprecipitation and immunoblotting with specific antibodies; format: binding
T1 construct: Chemokine receptors expressed on monocytes include CCR-1, CCR-2, CCR-5, and CXCR-4; endogenous in cells
T1 sequence (P61073 whole entry): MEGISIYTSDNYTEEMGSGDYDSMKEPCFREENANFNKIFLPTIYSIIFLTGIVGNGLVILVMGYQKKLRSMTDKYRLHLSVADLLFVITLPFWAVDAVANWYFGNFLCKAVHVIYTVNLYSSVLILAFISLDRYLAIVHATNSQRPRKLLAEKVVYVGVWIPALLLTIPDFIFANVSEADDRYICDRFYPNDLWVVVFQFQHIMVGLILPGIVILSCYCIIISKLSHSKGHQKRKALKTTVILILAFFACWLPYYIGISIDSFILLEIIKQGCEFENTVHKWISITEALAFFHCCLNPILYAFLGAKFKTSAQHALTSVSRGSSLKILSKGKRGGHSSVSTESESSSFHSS

galectin-3: Recombinant human galectin-3, a 26 kDa beta-galactoside-binding protein (lectin)
Monocyte migration (% of input cells) ([1]; 10 nM galectin-3, subsequent experiments n=21, control 4.26±1.3%, p<0.001): 7.01±2.1% | Monocyte migration (% of input cells) ([1]; 100 nM galectin-3 in lower chamber, n=4 experiments, diluent control 3.54±2.2%): 6.25±1.3% | Monocyte migration (% of input cells) ([1]; 300 nM galectin-3 in lower chamber, n=4 experiments, diluent control 3.54±2.2%): 9.8±0.33% | Monocyte migration with galectin-3 in both chambers ([1]; 1 μM galectin-3 added to both chambers): no significant increase in monocyte migration over the background | Monocyte migration (% of input cells) ([1]; 1 μM galectin-3 in lower chamber, n=4 experiments, diluent control 3.54±2.2%): 12.4±1.2% | Effect on monocyte migration compared with MCP-1 ([1]; 1 μM galectin-3 vs MCP-1 at 100 ng/ml (11.6 nM)): comparable to that of human recombinant MCP-1 | Monocyte migration (% migrated cells of the total cells) ([1]; checkerboard: galectin-3 above 0 nM, below 10 nM): 8.66 ± 0.22% | Monocyte migration (% migrated cells of the total cells) ([1]; checkerboard: galectin-3 above 0 nM, below 100 nM): 9.96 ± 0.72% | Monocyte migration (% migrated cells of the total cells) ([1]; checkerboard: galectin-3 above 0 nM, below 1000 nM): 13.1 ± 1.33% | Monocyte migration (% migrated cells of the total cells) ([1]; checkerboard: galectin-3 above 10 nM, below 0 nM): 7.55 ± 0.79% | Monocyte migration (% migrated cells of the total cells) ([1]; checkerboard: galectin-3 above 10 nM, below 10 nM): 8.88 ± 1.09% | Monocyte migration (% migrated cells of the total cells) ([1]; checkerboard: galectin-3 above 10 nM, below 100 nM): 9.23 ± 2.23% | Monocyte migration (% migrated cells of the total cells) ([1]; checkerboard: galectin-3 above 10 nM, below 1000 nM): 11.5 ± 3.49% | Monocyte migration (% migrated cells of the total cells) ([1]; checkerboard: galectin-3 above 100 nM, below 0 nM): 10.7 ± 0.86% | Monocyte migration (% migrated cells of the total cells) ([1]; checkerboard: galectin-3 above 100 nM, below 10 nM): 11.4 ± 2.11% | Monocyte migration (% migrated cells of the total cells) ([1]; checkerboard: galectin-3 above 100 nM, below 100 nM): 10.5 ± 2.10% | Monocyte migration (% migrated cells of the total cells) ([1]; checkerboard: galectin-3 above 100 nM, below 1000 nM): 12.5 ± 2.87% | Monocyte migration (% migrated cells of the total cells) ([1]; checkerboard: galectin-3 above 1000 nM, below 0 nM): 3.30 ± 2.82% | Monocyte migration (% migrated cells of the total cells) ([1]; checkerboard: galectin-3 above 1000 nM, below 10 nM): 3.25 ± 3.11% | Monocyte migration (% migrated cells of the total cells) ([1]; checkerboard: galectin-3 above 1000 nM, below 100 nM): 4.55 ± 3.69% | Monocyte migration (% migrated cells of the total cells) ([1]; checkerboard: galectin-3 above 1000 nM, below 1000 nM): 3.50 ± 2.41% | Nature of the effect on monocytes in vitro ([1]; high concentrations (1 μM)): chemotactic | Nature of the effect on monocytes in vitro ([1]; low concentrations (10 and 100 nM)): chemokinetic | Interaction with chemokine receptor (CXCR-4): Neither have interactions between galectin-3 and these four chemokine receptors been detected
